Experimental data as given in ChEMBL document CHEMBL2321769, “Regioselective synthesis of 5- and 6-methoxybenzimidazole-1,3,5-triazines as inhibitors of phosphoinositide 3-kinase” (Bioorg Med Chem Lett, 2013).

Legend:
[1] = molecular target: Phosphatidylinositol 4,5-bisphosphate 3-kinase catalytic subunit beta isoform (Homo sapiens, UniProt P42338); experiment: Inhibition of PI3Kbeta (unknown origin) expressed in SF21 cells using phosphatidylinositol as substrate after 60 mins by Kinase-Glo assay
Chain of Phosphatidylinositol 4,5-bisphosphate 3-kinase catalytic subunit beta isoform (P42338 whole entry, canonical isoform): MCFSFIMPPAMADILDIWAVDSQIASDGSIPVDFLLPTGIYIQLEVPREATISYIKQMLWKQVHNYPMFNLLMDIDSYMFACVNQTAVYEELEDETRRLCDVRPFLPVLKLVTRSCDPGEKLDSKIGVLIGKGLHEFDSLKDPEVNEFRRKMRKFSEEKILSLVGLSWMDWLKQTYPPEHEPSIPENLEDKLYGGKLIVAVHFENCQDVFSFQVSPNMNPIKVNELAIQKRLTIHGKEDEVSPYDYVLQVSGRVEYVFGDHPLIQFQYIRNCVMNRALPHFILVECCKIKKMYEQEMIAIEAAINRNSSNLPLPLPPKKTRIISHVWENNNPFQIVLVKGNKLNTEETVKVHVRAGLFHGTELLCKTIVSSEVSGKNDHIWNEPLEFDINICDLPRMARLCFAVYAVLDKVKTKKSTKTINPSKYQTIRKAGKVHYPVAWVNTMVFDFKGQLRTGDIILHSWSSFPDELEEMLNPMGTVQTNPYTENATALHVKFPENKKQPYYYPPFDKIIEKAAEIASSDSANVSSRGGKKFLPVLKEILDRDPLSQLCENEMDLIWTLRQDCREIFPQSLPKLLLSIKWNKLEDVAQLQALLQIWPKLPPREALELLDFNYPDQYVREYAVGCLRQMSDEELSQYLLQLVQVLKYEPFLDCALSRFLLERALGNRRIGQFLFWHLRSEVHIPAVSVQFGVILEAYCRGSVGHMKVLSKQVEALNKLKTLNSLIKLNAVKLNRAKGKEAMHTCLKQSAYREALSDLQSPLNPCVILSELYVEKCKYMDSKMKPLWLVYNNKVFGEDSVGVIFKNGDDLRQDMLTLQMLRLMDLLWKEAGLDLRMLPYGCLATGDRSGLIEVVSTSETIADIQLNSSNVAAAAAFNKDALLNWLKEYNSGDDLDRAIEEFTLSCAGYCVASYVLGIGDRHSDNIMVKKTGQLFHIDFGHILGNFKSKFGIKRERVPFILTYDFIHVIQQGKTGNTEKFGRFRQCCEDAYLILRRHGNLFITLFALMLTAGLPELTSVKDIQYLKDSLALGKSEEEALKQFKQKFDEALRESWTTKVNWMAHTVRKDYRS

[2] = molecular target: T1, Phosphatidylinositol 4,5-bisphosphate 3-kinase catalytic subunit delta isoform (Homo sapiens, UniProt O00329); experiment: Inhibition of PI3Kdelta (unknown origin) expressed in SF21 cells using phosphatidylinositol as substrate after 60 mins by Kinase-Glo assay
T1 sequence (O00329 whole entry): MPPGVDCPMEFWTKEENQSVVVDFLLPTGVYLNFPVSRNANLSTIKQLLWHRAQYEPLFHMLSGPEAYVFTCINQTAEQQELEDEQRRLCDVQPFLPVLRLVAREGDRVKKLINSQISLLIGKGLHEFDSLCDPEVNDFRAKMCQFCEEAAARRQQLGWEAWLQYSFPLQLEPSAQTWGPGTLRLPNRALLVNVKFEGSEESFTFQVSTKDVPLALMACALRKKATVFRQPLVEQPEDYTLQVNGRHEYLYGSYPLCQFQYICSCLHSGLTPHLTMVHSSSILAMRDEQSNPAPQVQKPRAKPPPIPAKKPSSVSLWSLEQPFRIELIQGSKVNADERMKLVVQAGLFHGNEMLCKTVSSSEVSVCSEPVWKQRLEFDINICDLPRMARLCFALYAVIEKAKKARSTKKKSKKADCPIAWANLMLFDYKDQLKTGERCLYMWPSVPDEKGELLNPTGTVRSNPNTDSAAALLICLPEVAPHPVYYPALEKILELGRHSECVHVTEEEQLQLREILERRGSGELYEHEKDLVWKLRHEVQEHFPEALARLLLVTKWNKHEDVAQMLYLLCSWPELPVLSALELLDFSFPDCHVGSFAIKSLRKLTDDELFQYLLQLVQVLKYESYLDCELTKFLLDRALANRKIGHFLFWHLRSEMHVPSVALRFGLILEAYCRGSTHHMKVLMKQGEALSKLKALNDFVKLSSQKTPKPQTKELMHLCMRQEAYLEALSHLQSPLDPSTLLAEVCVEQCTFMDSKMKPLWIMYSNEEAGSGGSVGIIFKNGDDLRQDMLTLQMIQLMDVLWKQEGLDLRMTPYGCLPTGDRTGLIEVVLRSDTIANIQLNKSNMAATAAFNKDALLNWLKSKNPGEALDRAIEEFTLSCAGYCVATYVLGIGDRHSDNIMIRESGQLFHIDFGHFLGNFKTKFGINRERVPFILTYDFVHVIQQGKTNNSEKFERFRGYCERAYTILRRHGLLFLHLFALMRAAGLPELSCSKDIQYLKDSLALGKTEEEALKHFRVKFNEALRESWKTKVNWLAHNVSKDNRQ

[3] = molecular target: Phosphatidylinositol 4,5-bisphosphate 3-kinase catalytic subunit alpha isoform (Homo sapiens, UniProt P42336); experiment: Inhibition of PI3Kalpha (unknown origin) expressed in SF21 cells using phosphatidylinositol as substrate after 60 mins by Kinase-Glo assay
Chain of Phosphatidylinositol 4,5-bisphosphate 3-kinase catalytic subunit alpha isoform (P42336 whole entry, canonical isoform): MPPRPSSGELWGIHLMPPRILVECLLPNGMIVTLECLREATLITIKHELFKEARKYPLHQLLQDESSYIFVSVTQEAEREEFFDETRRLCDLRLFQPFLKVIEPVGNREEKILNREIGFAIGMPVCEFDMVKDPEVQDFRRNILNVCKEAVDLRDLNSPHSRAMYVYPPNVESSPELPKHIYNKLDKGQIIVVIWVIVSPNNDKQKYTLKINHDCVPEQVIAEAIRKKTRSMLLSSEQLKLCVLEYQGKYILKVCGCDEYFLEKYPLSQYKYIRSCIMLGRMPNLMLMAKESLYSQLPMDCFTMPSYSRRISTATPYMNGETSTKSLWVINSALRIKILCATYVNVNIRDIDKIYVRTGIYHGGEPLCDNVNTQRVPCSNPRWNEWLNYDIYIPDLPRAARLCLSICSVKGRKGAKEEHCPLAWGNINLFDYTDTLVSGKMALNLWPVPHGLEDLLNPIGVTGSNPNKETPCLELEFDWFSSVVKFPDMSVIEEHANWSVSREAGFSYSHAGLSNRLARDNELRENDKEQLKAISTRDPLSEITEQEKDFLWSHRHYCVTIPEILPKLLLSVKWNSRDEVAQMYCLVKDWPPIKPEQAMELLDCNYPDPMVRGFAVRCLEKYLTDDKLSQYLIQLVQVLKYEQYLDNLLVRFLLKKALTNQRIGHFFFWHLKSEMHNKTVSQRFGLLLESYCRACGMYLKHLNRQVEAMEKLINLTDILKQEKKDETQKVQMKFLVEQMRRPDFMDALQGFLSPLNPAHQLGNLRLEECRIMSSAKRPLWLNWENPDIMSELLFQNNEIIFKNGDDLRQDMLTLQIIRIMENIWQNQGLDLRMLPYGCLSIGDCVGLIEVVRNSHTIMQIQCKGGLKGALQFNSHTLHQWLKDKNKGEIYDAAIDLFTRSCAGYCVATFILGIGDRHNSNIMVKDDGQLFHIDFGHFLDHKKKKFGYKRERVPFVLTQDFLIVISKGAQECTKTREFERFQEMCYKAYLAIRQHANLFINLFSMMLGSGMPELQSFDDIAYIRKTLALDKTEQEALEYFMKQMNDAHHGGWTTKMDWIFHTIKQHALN

[4] = molecular target: Phosphatidylinositol 4,5-bisphosphate 3-kinase catalytic subunit gamma isoform (Homo sapiens, UniProt P48736); experiment: Inhibition of PI3Kgamma (unknown origin) expressed in SF21 cells using phosphatidylinositol as substrate after 60 mins by Kinase-Glo assay
Chain of Phosphatidylinositol 4,5-bisphosphate 3-kinase catalytic subunit gamma isoform (P48736 whole entry, canonical isoform): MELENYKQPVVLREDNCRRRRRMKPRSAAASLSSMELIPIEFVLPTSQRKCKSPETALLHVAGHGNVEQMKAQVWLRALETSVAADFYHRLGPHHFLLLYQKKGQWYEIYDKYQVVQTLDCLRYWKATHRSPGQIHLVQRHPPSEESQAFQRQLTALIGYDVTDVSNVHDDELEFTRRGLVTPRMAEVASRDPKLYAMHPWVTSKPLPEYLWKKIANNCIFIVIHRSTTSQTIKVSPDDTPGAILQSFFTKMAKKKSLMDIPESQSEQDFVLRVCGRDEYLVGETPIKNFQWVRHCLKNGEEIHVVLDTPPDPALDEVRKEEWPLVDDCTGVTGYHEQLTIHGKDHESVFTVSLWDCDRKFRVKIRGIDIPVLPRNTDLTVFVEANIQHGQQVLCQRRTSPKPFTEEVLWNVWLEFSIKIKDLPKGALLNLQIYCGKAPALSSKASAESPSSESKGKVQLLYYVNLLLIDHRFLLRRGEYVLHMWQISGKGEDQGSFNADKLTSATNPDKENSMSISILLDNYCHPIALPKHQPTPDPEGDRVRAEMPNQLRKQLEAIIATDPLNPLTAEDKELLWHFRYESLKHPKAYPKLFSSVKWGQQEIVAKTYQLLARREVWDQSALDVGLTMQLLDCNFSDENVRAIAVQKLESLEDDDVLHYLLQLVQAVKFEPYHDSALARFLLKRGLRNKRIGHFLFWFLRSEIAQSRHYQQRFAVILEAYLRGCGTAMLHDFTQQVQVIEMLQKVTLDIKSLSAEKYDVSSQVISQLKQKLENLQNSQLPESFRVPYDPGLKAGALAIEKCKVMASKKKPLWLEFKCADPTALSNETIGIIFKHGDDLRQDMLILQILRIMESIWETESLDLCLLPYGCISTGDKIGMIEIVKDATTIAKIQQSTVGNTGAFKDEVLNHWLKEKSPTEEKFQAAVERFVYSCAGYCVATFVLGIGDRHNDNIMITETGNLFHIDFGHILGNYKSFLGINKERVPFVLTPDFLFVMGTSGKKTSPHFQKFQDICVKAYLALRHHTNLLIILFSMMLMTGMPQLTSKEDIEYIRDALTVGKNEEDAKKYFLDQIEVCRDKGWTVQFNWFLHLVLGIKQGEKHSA

Cc1nc2ccccc2n1-c1nc(N2CCOCC2)nc(N2CCOCC2)n1
IC50 [1]: 523 nM | IC50 [2]: 187 nM | IC50 [3]: 290 nM | IC50 [4]: 1860 nM

COc1ccc2c(c1)nc(C(F)F)n2-c1nc(N2CCOCC2)nc(N2CCOCC2)n1
IC50 [1]: > 10000 nM | IC50 [2]: > 1000 nM | IC50 [3]: > 5000 nM | IC50 [4]: > 10000 nM

COc1ccc2nc(C(F)F)n(-c3nc(N4CCOCC4)nc(N4CCOCC4)n3)c2c1
IC50 [1]: 214 nM | IC50 [2]: 110 nM | IC50 [3]: 375 nM | IC50 [4]: > 10000 nM

COc1ccc2c(c1)nc(C)n2-c1nc(N2CCOCC2)nc(N2CCOCC2)n1
IC50 [1]: > 10000 nM | IC50 [2]: 2770 nM | IC50 [3]: 9200 nM | IC50 [4]: > 10000 nM

COc1ccc2nc(C)n(-c3nc(N4CCOCC4)nc(N4CCOCC4)n3)c2c1
IC50 [1]: 1790 nM | IC50 [2]: 458 nM | IC50 [3]: 823 nM | IC50 [4]: > 10000 nM

CC(C)c1nc2ccccc2n1-c1nc(N2CCOCC2)nc(N2CCOCC2)n1
IC50 [1]: 419 nM | IC50 [2]: 128 nM | IC50 [3]: 431 nM | IC50 [4]: 2530 nM

COc1ccc2c(c1)nc(C(C)C)n2-c1nc(N2CCOCC2)nc(N2CCOCC2)n1
IC50 [1]: > 10000 nM | IC50 [2]: 1120 nM | IC50 [3]: > 10000 nM | IC50 [4]: > 10000 nM

COc1ccc2nc(C(C)C)n(-c3nc(N4CCOCC4)nc(N4CCOCC4)n3)c2c1
IC50 [1]: 726 nM | IC50 [2]: 423 nM | IC50 [3]: 1050 nM | IC50 [4]: > 10000 nM
